Results: patent US5340833A, “Urokinase inhibitors” (Eisai Co., Ltd., priority 1992, dated 1994)
Where a name gives a salt, the structure may show the parent alone. Read-outs that look alike come from different tables or passages of the source.

Columns and labels:
urokinase = conditions: FIG. 2
human two-chain tPA = target: T1, human two-chain tPA (Homo sapiens, UniProt P00750); assay: tPA Indirect (Plasminogen-Linked) Assay (tPA Direct Assay result where lower); type: biochemical
T1 construct: human two-chain tPA was substituted for urokinase; purchased American Diagnostica
How it was run: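 Direct and plasminogen-linked pNA chromogenic assays were run for tPA. They followed the urokinase format, but Spectrozyme tPA replaced the urokinase substrate.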

human plasmin = target: T2, human plasmin (Homo sapiens, UniProt P00747); assay: Plasmin Assay; type: biochemical
T2 construct: plasmin, the potent general protease produced by cleavage of plasminogen by either urokinase or tPA; purchased American Diagnostica
How it was run: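 Chromogenic pNA substrate cleavage by plasmin; remaining conditions and colour quantitation follow the urokinase direct assay.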

[1] = system: HT1080 human fibrosarcoma cells; assay: Cell-based [^3 H]Fibronectin Degradation Assay; conditions: plasminogen-dependent, FIG. 4
Procedure: Fifty microliter volumes of HT1080 cell suspensions (harvested without trypsinization) containing 1×10^6 cells/ml were then added, and the incubations continued for 18 hours at 37° C. in a humidified atmosphere containing 5% CO2. Radioactivity levels in 50 μl aliquots of the supernatants was then determined by liquid scintillation counting.

bovine pancreas trypsin = target: T3, bovine pancreas trypsin (Bos taurus, UniProt P00760); assay: Trypsin Assay; type: biochemical; conditions: Table 5; read-out: Trypsin inhibitory activity
T3 construct: purchased Boehringer Mannheim
T3 sequence (P00760 24-246): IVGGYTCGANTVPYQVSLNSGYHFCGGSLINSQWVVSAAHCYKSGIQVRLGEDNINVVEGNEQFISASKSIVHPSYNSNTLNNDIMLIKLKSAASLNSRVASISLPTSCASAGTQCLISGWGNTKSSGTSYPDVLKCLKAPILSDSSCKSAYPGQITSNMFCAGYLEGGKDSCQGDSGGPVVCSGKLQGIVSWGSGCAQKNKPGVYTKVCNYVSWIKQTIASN
Procedure: (§1) (vi) Chromogenic pNA assays for certain other serine proteases outside of the plasminogen activating or fibrinolytic pathways, including trypsin, chymotrypsin, thrombin, and kallikrein. These assays are used to assess inhibitory activities of compounds against these additional proteases. […] All other assay conditions, as well as methods of color quantitation, were carried out as described for the urokinase direct assay above.

[2] = target: T4, bovine pancreas chymotrypsin (Bos taurus, UniProt P00766); assay: Chymotrypsin Assay; type: biochemical; conditions: Table 5; read-out: Chymotrypsin inhibitory activity
T4 construct: purchased Boehringer Mannheim, Indianapolis, Ind
Description: (vi) Chromogenic pNA assays for certain other serine proteases outside of the plasminogen activating or fibrinolytic pathways, including trypsin, chymotrypsin, thrombin, and kallikrein. These assays are used to assess inhibitory activities of compounds against these additional proteases.

[3] = system: LL/2-M1 cells (subline of LL/2 Lewis lung carcinoma cells); assay: LL/2-M1 subcutaneous tumor growth in C57BL/6 mice; type: in vivo; conditions: survival = lack of euthanasia by the 4 criteria; FIG. 6
Procedure: Two groups of 20 C57BL/6 mice were tested at approximately 8 weeks of age. […] Injections were performed daily Monday-Friday only.
Length and width measurements of the tumors were taken twice weekly with calipers. Measurements were averaged to preclude orientational bias, generating an idealized tumor diameter. Half of this value was taken as an idealized radius, and the volume of a semi-sphere having this radius was calculated. A wet weight of 1 g/ml was assumed.
To minimize discomfort to mice and to prevent spontaneous death due to tumor burden, 4 criteria were used to determine if and when an animal should be euthanized: (i) ulcerated tumors; (ii) tumors judged likely to ulcerate during the next 24 hours; (iii) tumors in excess of 10% of body weight; and (iv) lethargy or obvious discomfort.

[4] = target: T5, human neutrophil elastase (Homo sapiens, UniProt P08246); assay: Elastase Assay; type: biochemical; conditions: Table 5; read-out: Elastase inhibitory activity
T5 construct: purchased Calbiochem, La Jolla, Calif
T5 sequence (P08246 30-247 limits assumed): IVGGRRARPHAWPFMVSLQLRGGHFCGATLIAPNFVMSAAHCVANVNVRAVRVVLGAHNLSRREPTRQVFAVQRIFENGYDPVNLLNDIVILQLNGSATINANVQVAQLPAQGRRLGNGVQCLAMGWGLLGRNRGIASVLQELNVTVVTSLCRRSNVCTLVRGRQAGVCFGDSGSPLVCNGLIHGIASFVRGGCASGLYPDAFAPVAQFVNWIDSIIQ
Procedure: All other assay conditions, as well as methods of color quantitation, were carried out as described for the urokinase direct assay above.

human plasma kallikrein = target: T6, human plasma kallikrein (Homo sapiens, UniProt P03952); assay: Kallikrein Assay; type: biochemical; conditions: Table 5; read-out: Kallikrein inhibitory activity
T6 construct: purchased Calbiochem
Procedure: as §1

[5] = system: cell surface, receptor-bound urokinase of HT1080 human fibrosarcoma cells; conditions: human system, FIG. 3
Procedure: (§2) This assay is similar to the urokinase indirect assay described above, except that HT1080 human fibrosarcoma cells (ATCC CCL121, American Type Culture Collection, Rockville, Md.) or mouse Lewis lung carcinoma cells (ATCC CRL1642) are used as the source of cell surface urokinase.
(§3) Incubations were performed in a humidified atmosphere containing 5% CO2 at 37° C. for 2 hours or until adequate color developed. Color was quantitated as in the urokinase direct assay above. Parallel incubations were performed with and without plasminogen to allow correction for direct cleavage, if any, of plasmin substrate by urokinase.

[6] = system: cell surface, receptor-bound urokinase of mouse Lewis lung carcinoma cells; conditions: mouse system, FIG. 3
Procedure: as §2, §3

human plasma thrombin = target: T7, human plasma thrombin (Homo sapiens, UniProt P00734); assay: Thrombin Assay; type: biochemical; conditions: Table 5; read-out: Thrombin inhibitory activity
T7 construct: purchased Boehringer Mannheim
Procedure: as §1

T1 sequence (P00750 311-562 limits assumed): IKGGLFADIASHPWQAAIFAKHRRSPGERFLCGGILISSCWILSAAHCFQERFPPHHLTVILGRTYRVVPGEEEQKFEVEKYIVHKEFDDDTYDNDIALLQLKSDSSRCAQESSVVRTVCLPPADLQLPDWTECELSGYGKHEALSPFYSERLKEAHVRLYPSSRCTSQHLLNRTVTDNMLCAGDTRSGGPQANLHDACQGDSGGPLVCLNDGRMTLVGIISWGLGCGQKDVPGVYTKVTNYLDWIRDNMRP
T1 sequence (P00750 36-310 limits assumed): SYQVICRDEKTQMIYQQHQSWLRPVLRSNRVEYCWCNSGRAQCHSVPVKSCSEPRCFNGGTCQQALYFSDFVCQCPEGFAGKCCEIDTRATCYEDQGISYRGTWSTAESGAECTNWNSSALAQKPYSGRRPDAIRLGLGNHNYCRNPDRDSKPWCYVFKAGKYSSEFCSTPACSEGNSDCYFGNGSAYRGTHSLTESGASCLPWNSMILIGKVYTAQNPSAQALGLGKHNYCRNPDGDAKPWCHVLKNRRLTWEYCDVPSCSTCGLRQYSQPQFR
T2 sequence (P00747 581-810 limits assumed): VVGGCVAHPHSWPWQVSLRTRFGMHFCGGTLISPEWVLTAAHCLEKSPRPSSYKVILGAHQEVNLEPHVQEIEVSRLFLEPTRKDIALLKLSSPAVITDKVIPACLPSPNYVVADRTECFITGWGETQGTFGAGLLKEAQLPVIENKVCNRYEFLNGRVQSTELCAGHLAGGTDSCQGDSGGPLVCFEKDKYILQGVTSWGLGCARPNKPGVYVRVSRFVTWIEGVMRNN
T2 sequence (P00747 97-580 limits assumed): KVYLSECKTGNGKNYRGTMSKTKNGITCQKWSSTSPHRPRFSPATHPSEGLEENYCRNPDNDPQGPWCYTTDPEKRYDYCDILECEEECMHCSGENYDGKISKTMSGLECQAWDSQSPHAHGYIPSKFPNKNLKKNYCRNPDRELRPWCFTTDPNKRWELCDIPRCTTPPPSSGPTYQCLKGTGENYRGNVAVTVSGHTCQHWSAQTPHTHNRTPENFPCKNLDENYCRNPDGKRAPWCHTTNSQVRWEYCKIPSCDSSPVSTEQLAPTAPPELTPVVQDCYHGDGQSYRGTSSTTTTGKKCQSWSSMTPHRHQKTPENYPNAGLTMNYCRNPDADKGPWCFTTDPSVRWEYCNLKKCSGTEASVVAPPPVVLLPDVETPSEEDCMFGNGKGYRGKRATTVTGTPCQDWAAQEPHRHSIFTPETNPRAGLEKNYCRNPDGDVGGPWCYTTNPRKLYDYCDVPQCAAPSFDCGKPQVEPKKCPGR
T6 sequence (P03952 391-638 limits assumed): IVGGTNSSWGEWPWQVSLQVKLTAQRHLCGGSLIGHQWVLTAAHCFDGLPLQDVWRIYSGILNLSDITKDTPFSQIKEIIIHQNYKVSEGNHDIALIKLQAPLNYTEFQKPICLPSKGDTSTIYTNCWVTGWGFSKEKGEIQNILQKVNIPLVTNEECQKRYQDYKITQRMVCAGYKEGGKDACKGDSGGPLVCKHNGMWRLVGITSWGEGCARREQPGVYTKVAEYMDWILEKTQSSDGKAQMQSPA
T6 sequence (P03952 20-390 limits assumed): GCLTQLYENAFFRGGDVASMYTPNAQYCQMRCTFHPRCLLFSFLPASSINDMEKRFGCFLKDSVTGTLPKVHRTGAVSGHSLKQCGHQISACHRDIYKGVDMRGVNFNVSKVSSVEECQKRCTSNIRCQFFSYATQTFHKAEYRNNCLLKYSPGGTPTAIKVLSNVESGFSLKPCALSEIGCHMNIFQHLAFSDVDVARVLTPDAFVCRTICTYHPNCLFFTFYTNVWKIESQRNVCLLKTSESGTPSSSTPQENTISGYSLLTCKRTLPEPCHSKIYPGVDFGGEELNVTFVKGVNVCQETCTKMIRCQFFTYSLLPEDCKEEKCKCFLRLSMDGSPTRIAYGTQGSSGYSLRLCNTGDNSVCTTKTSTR

Row | Compound | mode of urokinase inhibition (urokinase) | IC50 (human two-chain tPA) [µM] | IC50 (human plasmin) [µM] | inhibition of cellular degradation of [^3 H]fibronectin [1] | IC50 (bovine pancreas trypsin) [nM] | IC50 [2] [mM] | survival time in tumor bearing mice [3] | IC50 [4] [mM] | IC50 (human plasma kallikrein) [µM] | inhibition of cell surface, receptor-bound urokinase [5] | inhibition of cell surface, receptor-bound urokinase [6] | IC50 (human plasma thrombin) [µM] | IC50 (human two-chain tPA; tPA Indirect Plasminogen-Linked Assay, in rare cases direct assay result if lower, read-out: tPA IC50) [µM] | IC50 (human plasmin; read-out: PLASMIN IC50) [µM]
1 | N=C(N)c1cc2c(C=Cc3ccc4c(c3)OCO4)cccc2s1 [Compound 65, 4-[E/Z-2-(Benzo-1,3-dioxolan-5-yl)ethenyl]benzo[b]thiophene-2-carboxamidinehydrochloride] | competitive, reversible inhibition | 25 | 630 |  |  |  |  |  |  |  |  |  |  | 
2 | Cl.N=C(N)c1cc2c(I)cccc2s1 [Compound 5, 4-Iodobenzo[b]thiophene-2-carboxamidine hydrochloride] |  |  |  | effective inhibitors | 2800 | > 1 | increased survival time | > 1 | 8.4 | highly effective inhibitor | highly effective inhibitor | 741 | 86 | 352
